In US11096930B2, “Substituted imidazopyridine compounds as inhibitors of indoleamine 2,3-dioxygenase and/or tryptophan-2,3-dioxygenase” (IOMet Pharma Ltd., priority 2016, dated 2021):

Tests used:
[1] = target: T1, TDO (Homo sapiens (Human), UniProt P48775); experiment: hTDO biochemical coupled assay; conditions: 330 μM L-tryptophan
Procedure: (§1) Exemplary compounds disclosed herein were prepared, and tested to determine their effect as IDO and/or TDO inhibitors. Two different assays were employed: 1. a cell-based assay for detecting the effect of test compounds on kynurenine production in two different cancer cell types. This assay utilized cancer cells which expressed either TDO or IDO and as such was used as a means of testing compound activity at these two enzymes in a cell-based context. 2. a TDO and IDO biochemical coupled assay which utilized recombinantly produced and purified TDO and IDO enzymes in combination with the enzyme formamidase. This coupled enzyme system allowed conversion of N-formylkynurenine produced by TDO or IDO activity to kynurenine which was then quantified by fluorescence following addition of Erhlich's Reagent. The protocols for these are set out below.
(§2) TDO and IDO Biochemical Coupled Assay
(§3) Recombinant human IDO or TDO was incubated in 50 mM KPO4 (pH 7.0), 0.5 mM EGTA, 0.5 mM EDTA, 0.05% Triton™ X100, 20 mM ascorbate, 10 μM methylene blue, 500 U/ml catalase, 50 μg/ml KynB (kynurenine formamidase). […] After incubation for 17 minutes at room temperature the reactions were stopped by the addition of Erhlich's reagent and incubated at room temperature for 5 minutes before the fluorescence was read.

[2] = target: T2, IDO (Homo sapiens (Human), UniProt P14902); experiment: hIDO biochemical coupled assay; conditions: 45 μM L-tryptophan
Procedure: as §1, §2, §3

[3] = target: T1, TDO; experiment: A172 (TDO) cell based assay for detection of kynurenine; conditions: A172 cells, 48 hours, read-out: pIC50 A172 (TDO) cell based assay (converted)
Procedure: as §1
(§4) A172 and SKOV3 Cell Based Assays for Detection of Kynurenine Produced by TDO and/or IDO
(§5) A172 (human glioblastoma) and SKOV3 (human ovarian adenocarcinoma) cells were seeded in a 96 well plate at 30,000 or 40,000 cells per well respectively in phenol red-free RPMI supplemented with 10% FCS, 2 mM L-glutamine and 500 μM L-tryptophan. IDO expression was induced in the SKOV3 cells by the addition of 500 ng/ml IFN-γ. Cells were incubated at 37° C. with or without the addition of test compound. After 48 hours, the cells were removed by centrifugation and Erhlich's reagent was added to the supernatant.

[4] = target: T2, IDO; experiment: SKOV3 (IDO) cell based assay for detection of kynurenine; conditions: SKOV3 cells, IDO induced by IFN-γ, 48 hours, read-out: pIC50 SKOV3 (IDO) cell based assay (converted)
Procedure: as §1, §4, §5

T1 sequence (P48775 whole entry): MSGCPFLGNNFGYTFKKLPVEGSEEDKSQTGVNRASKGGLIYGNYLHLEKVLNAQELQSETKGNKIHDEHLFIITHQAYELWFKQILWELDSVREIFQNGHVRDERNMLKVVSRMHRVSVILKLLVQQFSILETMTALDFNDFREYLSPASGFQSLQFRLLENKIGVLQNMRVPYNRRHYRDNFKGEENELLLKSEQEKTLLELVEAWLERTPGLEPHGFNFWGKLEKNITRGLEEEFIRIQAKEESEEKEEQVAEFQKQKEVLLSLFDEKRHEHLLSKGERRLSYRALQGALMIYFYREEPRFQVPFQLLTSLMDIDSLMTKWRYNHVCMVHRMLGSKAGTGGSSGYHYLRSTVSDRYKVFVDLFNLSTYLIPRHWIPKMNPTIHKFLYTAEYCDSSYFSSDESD
T2 sequence (P14902 whole entry): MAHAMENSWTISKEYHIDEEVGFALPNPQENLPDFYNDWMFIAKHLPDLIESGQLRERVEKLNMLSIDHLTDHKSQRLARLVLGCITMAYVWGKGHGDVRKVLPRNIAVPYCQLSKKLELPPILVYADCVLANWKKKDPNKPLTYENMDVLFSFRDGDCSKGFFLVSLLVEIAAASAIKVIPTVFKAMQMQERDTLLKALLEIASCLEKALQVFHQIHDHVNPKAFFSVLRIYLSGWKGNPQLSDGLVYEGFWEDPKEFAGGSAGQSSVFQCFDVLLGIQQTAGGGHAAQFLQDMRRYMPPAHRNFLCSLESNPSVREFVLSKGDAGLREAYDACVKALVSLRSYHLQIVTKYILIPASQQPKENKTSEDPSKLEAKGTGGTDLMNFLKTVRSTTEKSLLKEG

Row | SMILES | pIC50 hTDO biochemical coupled assay [1] | pIC50 hIDO biochemical coupled assay [2] | IC50 [3] [µM] | IC50 [4] [µM]
1 | O=C1CC2(CCN(c3cc(C(F)(F)F)cc4cncn34)CC2)C(=O)N1 [Example 13, 8-(7-(trifluoromethyl)imidazo[1,5-a]pyridin-5-yl)-2,8-diazaspiro[4.5]decane-1,3-dione] | 5.77 | 6.53 | > 10 | 1.26
2 | CN1C(=O)NC2(CCN(c3cc(C(F)(F)F)cc4cncn34)CC2(C)C)C1=O (stereo not shown) [Example 10, 3,6,6-Trimethyl-8-(7-(trifluoromethyl)imidazo[1,5-a]pyridin-5-yl)-1,3,8-triazaspiro[4.5]decane-2,4-dione] | 5.57 | 6.2 | > 10 | 7.76
3 | CC1(C)CN(c2cc(Br)cc3cncn23)CCC12NC(=O)NC2=O (stereo not shown) [Example 16, 8-(7-Bromoimidazo[1,5-a]pyridin-5-yl)-6,6-dimethyl-1,3,8-triazaspiro[4.5]decane-2,4-dione] | 5.92 | 7.06 | 7.94 | 0.135
4 | O=C1NC(=O)C2(CCN(c3cc(C(F)(F)F)cn4cncc34)CC2)N1 [Example 4, 8-(6-(Trifluoromethyl)imidazo[1,5-a]pyridin-8-yl)-1,3,8-triazaspiro[4.5]decane-2,4-dione] | 5.84 | 5.99 | > 10 | 4.79
5 | CC1(C)CN(c2cc(C(F)(F)F)cc3cncn23)CCC12NC(=O)N(c1ccccc1)C2=O (stereo not shown) [Example 15, 6,6-Dimethyl-3-phenyl-8-(7-(trifluoromethyl)imidazo[1,5-a]pyridin-5-yl)-1,3,8-triazaspiro[4.5]decane-2,4-dione] | 4.42 | 5.66 | > 10 | 5.62
6 | O=C1NC(=O)C2(CCN(c3cc(Br)cc4cncn34)CC2)N1 [Example 2, 8-(7-Bromoimidazo[1,5-a]pyridin-5-yl)-1,3,8-triazaspiro[4.5]decane-2,4-dione] | 6.29 | 7.19 | > 10 | 0.562
7 | O=C1NC2(CCN(c3cc(C(F)(F)F)cc4cncn34)CC2)C(=O)N1c1ccccc1 [Example 9, 3-Phenyl-8-(7-(trifluoromethyl)imidazo[1,5-a]pyridin-5-yl)-1,3,8-triazaspiro[4.5]decane-2,4-dione] | 5.78 | 6.58 | > 10 | 1.74
8 | CC1(C)CN(c2cc(Cl)cc3cncn23)CCC12NC(=O)NC2=O (stereo not shown) [Example 8, 8-(7-Chloroimidazo[1,5-a]pyridin-5-yl)-6,6-dimethyl-1,3,8-triazaspiro[4.5]decane-2,4-dione] | – | – | 7.94 | 0.2
9 | CN1C(=O)NC2(CCN(c3cc(C(F)(F)F)cc4cncn34)CC2)C1=O [Example 6, 3-Methyl-8-(7-(trifluoromethyl)imidazo[1,5-a]pyridin-5-yl)-1,3,8-triazaspiro[4.5]decane-2,4-dione] | 5.74 | 5.89 | > 10 | 6.17
10 | O=C1NC2(CCN(c3cc(C(F)(F)F)cc4cncn34)CC2)C(=O)N1CC1CCOCC1 [Example 7, 3-((Tetrahydro-2H-pyran-4-yl)methyl)-8-(7-(trifluoromethyl)imidazo[1,5-a]pyridin-5-yl)-1,3,8-triazaspiro[4.5]decane-2,4-dione] | 5.4 | 5.92 | 10 | 3.63
11 | CC1(C)CN(c2cc(C(F)(F)F)cn3cncc23)CCC12NC(=O)NC2=O (stereo not shown) [Example 12, 6,6-Dimethyl-8-(6-(trifluoromethyl)imidazo[1,5-a]pyridin-8-yl)-1,3,8-triazaspiro[4.5]decane-2,4-dione] | 6.1 | 5.74 | 0.661 | 1.17
12 | CC1(C)CN(c2cc(C(F)(F)F)cc3cncn23)CCC12NC(=O)N(CC1CCOCC1)C2=O (stereo not shown) [Example 14, 6,6-dimethyl-3-((tetrahydro-2H-pyran-4-yl)methyl)-8-(7-(trifluoromethyl)imidazo[1,5-a]pyridin-5-yl)-1,3,8-triazaspiro[4.5]decane-2,4-dione] | 4.78 | 5.92 | > 10 | 4.68
13 | CC1(C)CN(c2cc(Cl)cc3cncn23)CCC12NC(=O)NC2=O (stereo not shown) [Example 11, 8-(7-Chloroimidazo[1,5-a]pyridin-5-yl)-6,6-dimethyl-1,3,8-triazaspiro[4.5]decane-2,4-dione] | 6.33 | 6.99 | 2.09 | 3.72
14 | O=C1NC(=O)C2(CCN(c3cc(Cl)cc4cncn34)CC2)N1 [Example 3, 8-(7-Chloroimidazo[1,5-a]pyridin-5-yl)-1,3,8-triazaspiro[4.5]decane-2,4-dione] | 5.85 | 6.55 | > 10 | 1.41
15 | O=C1NC(=O)C2(CCN(c3cc(C(F)(F)F)cc4cncn34)CC2)N1 [Example 1, 8-(7-(Trifluoromethyl)imidazo[1,5-a]pyridin-5-yl)-1,3,8-triazaspiro[4.5]decane-2,4-dione] | 5.6 | 7.53 | > 10 | 0.617
